Experimental findings from ChEMBL document CHEMBL3763012, “From Sphingosine Kinase to Dihydroceramide Desaturase: A Structure-Activity Relationship (SAR) Study of the Enzyme Inhibitory and Anticancer Activity of 4-((4-(4-Chlorophenyl)thiazol-2-yl)amino)phenol (SKI-II)” (J Med Chem, 2016) are described below.

In series [1] the target is T1, Sphingolipid delta(4)-desaturase DES1 (Homo sapiens) (UniProt O15121).
T1 sequence (whole entry): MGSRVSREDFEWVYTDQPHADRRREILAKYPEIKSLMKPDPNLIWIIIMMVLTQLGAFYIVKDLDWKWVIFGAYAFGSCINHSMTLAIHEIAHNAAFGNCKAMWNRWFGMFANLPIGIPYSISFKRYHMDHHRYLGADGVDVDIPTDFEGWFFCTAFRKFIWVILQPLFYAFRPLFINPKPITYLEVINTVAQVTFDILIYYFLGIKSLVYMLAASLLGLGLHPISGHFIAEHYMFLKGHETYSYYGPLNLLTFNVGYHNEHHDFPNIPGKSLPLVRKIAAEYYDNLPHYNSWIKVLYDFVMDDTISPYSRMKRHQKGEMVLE
In words: Inhibition of Des1 activity in human Jurkat cells using fluorescence labeled DhCer-C6-NBD as substrate at 1 and 10 uM after 3 hrs by HPLC method. Format: cell-based.

For series [2], the system named is PC-3. In words: Anticlonogenic activity against human PC3 cells at 0.05 to 10 uM after 21 days by soft agar colony forming assay. Format: functional, cell-based.
The subject of a further series is HEK293. In words: Induction of SK1 degradation in HEK293 cells at 10 uM after 16 hrs by western blotting analysis in presence of proteasome inhibitor MG132. Format: functional, cell-based. Particulars: Homo sapiens.
The target of series [3] is T1, Sphingolipid delta(4)-desaturase DES1 (Homo sapiens). In words: Inhibition of Des1 activity in human Jurkat cells using fluorescence labeled DhCer-C6-NBD as substrate at 0.1 to 10 uM after 3 hrs by HPLC method. Format: cell-based.
Series [4] addresses T2, Sphingosine kinase 2 (Homo sapiens) (UniProt Q9NRA0).
T2 sequence (whole entry): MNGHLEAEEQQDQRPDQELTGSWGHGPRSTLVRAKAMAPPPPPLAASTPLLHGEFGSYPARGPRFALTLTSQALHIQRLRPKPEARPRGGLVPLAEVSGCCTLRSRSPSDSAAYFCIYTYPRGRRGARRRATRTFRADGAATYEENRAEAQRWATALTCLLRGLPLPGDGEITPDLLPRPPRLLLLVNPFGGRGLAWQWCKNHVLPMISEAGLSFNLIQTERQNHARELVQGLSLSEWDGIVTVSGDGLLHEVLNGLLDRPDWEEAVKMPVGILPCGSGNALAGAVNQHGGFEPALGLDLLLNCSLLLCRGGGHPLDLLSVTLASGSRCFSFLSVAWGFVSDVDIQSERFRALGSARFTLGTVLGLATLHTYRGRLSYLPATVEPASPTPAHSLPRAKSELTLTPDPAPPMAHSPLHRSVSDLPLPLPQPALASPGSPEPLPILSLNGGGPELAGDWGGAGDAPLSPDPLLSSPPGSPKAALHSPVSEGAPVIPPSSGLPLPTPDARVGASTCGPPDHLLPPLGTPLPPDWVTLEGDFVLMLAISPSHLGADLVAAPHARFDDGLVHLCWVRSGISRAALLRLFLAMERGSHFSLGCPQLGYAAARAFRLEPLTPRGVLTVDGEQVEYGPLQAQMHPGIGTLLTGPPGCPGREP
In words: Inhibition of recombinant human SK2 assessed as production of [32P] S1P using sphingosine as substrate at 10 uM by TLC method in presence of 100 uM [gamma32P]-ATP relative to control; values are per cent of control.

Series [5] in a line: Antiproliferative activity against human PC3 cells after 72 hrs by MTS assay. Format: functional. The following applies: PC-3, 72 h. In general terms: Tetrazolium dyes change colour on reduction, which living cells bring about.
The subject of series [6] is PC-3. In words: Increase in total dhCer level in human PC3 cells at 10 uM after 5 hrs by LC-MS analysis. Format: functional, cell-based.
For series [7], the target named is T3, Sphingolipid delta(4)-desaturase DES1 (Homo sapiens, UniProt O15121).
T3 sequence (O15121 whole entry): T1 sequence (whole entry)
In words: Drug level in human Jurkat cells assessed as DES1-mediated compound oxidation treated with fenretinide. Format: ADME, cell-based.

Series [8] deals with T1, Sphingolipid delta(4)-desaturase DES1 (Homo sapiens). In words: Irreversible inhibition of Des1 activity in human Jurkat cells treated with parent compound treated with fenretinide using fluorescence labeled DhCer-C6-NBD as substrate by HPLC method. Format: cell-based. The following applies: TDE = time-dependent effect.
For series [9], the target named is T4, Sphingosine kinase 1 (Homo sapiens, UniProt Q9NYA1). In words: Inhibition of human SK1 using D-erythro sphingosine as substrate and gamma[33P]ATP by Lineweaver-Burk plot analysis.
T4 sequence (Q9NYA1 whole entry): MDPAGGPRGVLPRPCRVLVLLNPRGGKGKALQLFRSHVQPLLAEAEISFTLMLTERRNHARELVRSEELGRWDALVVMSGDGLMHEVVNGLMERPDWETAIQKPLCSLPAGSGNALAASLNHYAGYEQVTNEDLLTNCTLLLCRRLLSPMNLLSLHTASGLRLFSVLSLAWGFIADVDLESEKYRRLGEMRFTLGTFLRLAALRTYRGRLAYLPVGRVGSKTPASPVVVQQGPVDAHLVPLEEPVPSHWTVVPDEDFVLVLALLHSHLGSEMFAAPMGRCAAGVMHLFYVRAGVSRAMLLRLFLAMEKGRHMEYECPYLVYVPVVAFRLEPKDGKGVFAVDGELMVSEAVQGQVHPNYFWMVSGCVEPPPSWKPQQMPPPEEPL
The target in series [10] is T5, Sphingosine kinase 2 (Homo sapiens, UniProt Q9NRA0).
T5 sequence (Q9NRA0 whole entry): T2 sequence (whole entry)
In words: Inhibition of human SK2 using D-erythro sphingosine as substrate and gamma[33P]ATP by Lineweaver-Burk plot analysis.

For series [11], the target named is T5, Sphingosine kinase 2. In words: Inhibition of recombinant SK2 (unknown origin) expressed in Sf9 cells assessed as [33P]S1P formation using D-erythro sphingosine as substrate and gamma[33P]ATP by liquid scintillation counting.
The target of series [12] is T1, Sphingolipid delta(4)-desaturase DES1 (Homo sapiens). In words: Inhibition of Des1 activity in human Jurkat cells using fluorescence labeled DhCer-C6-NBD as substrate at 10 uM after 3 hrs by HPLC method. Format: cell-based.
The target is the same in series [13]. In words: Inhibition of Des1 (unknown origin) at 30 uM.
In series [14] the target is T4, Sphingosine kinase 1. In words: Inhibition of recombinant His-tagged human SK1 assessed as production of [32P]-S1P using 10 uM sphingosine as substrate by TLC method in presence of 1 mM [gamma32P]-ATP.
In series [15] the target is T5, Sphingosine kinase 2. In words: Inhibition of recombinant human SK2 assessed as production of [32P] S1P using 10 uM sphingosine as substrate by TLC method in presence of 1 mM [gamma32P]-ATP relative to control.
Series [16] is described as follows: Cytotoxicity against human PC3 cells after 72 hrs by MTT assay. Particulars: PC-3, 72 h. Format: functional.
The target in series [17] is T3, Sphingolipid delta(4)-desaturase DES1. In words: Drug metabolism in human Jurkat cells assessed as DES1-mediated (2E,4E,6E,8E)-3,7-dimethyl-N-(4-oxocyclohexa-2,5-dienylidene)-9-(2,6,6-trimethylcyclohex-1-enyl)nona-2,4,6,8-tetraenamide formation. Format: ADME, cell-based.
The target in series [18] is T4, Sphingosine kinase 1. In words: Inhibition of SK1 (unknown origin).
The target of series [19] is T5, Sphingosine kinase 2. In words: Inhibition of SK2 (unknown origin).

The source made the active and inactive calls. The rule behind the calls is not given here.

For `N/C(=N\O)c1ccc(Nc2nnc(-c3ccc(Cl)cc3)o2)cc1`, the inhibition entry in series [1] was “Active”.

Take `Oc1ccc(Nc2nc(-c3ccc(Cl)cc3)cs2)cc1`: the result with PC-3 [2], in the series with HEK293 and with PC-3 [6] was Active. The inhibition entry in series [3] was “Active”. Besides, the residual activity in series [4] is 90%. This compound came in with a GI50 in series [5] of 11 µM.

In the case of `Oc1ccc(-c2nnc(-c3ccc(Cl)cc3)o2)cc1`, the inhibition entry in series [3] is “inactive”.

For the compound `CC1=C(/C=C/C(C)=C/C=C/C(C)=C/C(=O)N=C2C=CC(=O)C=C2)C(C)(C)CCC1`, in [7], the Drug metabolism result is listed as “metabolite_detected”. Also, the inhibition result in series [8] is “tde”.

As for `CCCCCCCc1nc(-c2ccc(CNC(=O)[C@H]3NCC[C@@H]3O)cc2)no1`, in the series on HEK293, the outcome was Active. Also, in [4], the residual activity was determined as 112%. In addition, the GI50 in [5] is above 100 µM.

Consider `Oc1ccc(Nc2nnc(-c3ccc(I)cc3)o2)cc1`, for which, in series [3], the inhibition entry is “Active”.

As to `Clc1ccc(-c2nnc(Nc3ccc(-c4nn[nH]n4)cc3)o2)cc1`, the residual activity in series [4] is 70%. Also, the GI50 in series [5] stood at 15 µM.

As to `Cc1ccc(S(=O)(=O)Nc2ccccc2/C=N/c2ccccc2NS(=O)(=O)c2ccc(C)cc2)cc1`, the inhibition constant Ki on Sphingosine kinase 1 [9] stood at 27 µM; at Sphingosine kinase 2 [10] it was 6.9 µM.

Take `Oc1ccc(Nc2nnc(-c3ccc(Cl)cc3)o2)cc1`: the inhibition result in [3] is “Active”.

For `CCCCCCCCc1ccc(-c2noc([C@H]3CCCN3C(=N)N)n2)cc1`, the Ki on Sphingosine kinase 2 [11] came out at 1.3 µM.

Consider `N/C(=N\O)c1ccc(-c2nnc(-c3ccc(Cl)cc3)o2)cc1`, for which, in series [12], the inhibition entry is “inactive”.

The compound `O=C(NCc1ccncc1)C12CC3CC(C1)CC(c1ccc(Cl)cc1)(C3)C2` showed an inhibition in series [13] of 40%.

For the compound `Clc1ccc(-c2nnc(NCc3ccncc3)o2)cc1`, the 50% inhibitory concentration (IC50) on Sphingosine kinase 1 [14] stood at 3.1 µM; at Sphingosine kinase 2 [15], 5.5 µM. The residual activity in series [4] was found to be 39%. Besides, the GI50 in series [5] is above 100 µM.

Take `CC1=C(/C=C/C(C)=C/C=C/C(C)=C/C(=O)Nc2ccc(O)cc2)C(C)(C)CCC1` [FENRETINIDE]: growth in series [16] was halved (GI50) at 2 µM. The Drug metabolism result in series [17] is listed as “metabolite_detected”.

In the case of `OC[C@H]1C[C@H](O)CN1CCCc1ccc(Nc2nc(-c3cccc(C(F)(F)F)c3)cs2)cc1`, the IC50 is 0.02 µM against Sphingosine kinase 1 [18] and 0.148 µM against Sphingosine kinase 2 [19].

For `Cc1cc(CS(=O)(=O)c2ccccc2)cc(OCc2ccc(CN3CCC[C@@H]3CO)cc2)c1`, the outcome in the series with HEK293 was Active. In addition, the residual activity in [4] worked out at 45%. In addition, the 50% growth inhibitory concentration (GI50) in [5] was 19 µM.

The inhibition is the relative decrease from the control value, in per cent. By residual activity is commonly meant the signal under treatment as a percentage of the control signal. One may read the GI50 as the concentration at which growth is held to half of that of the control. Broadly, the Ki is the equilibrium dissociation constant of an inhibitor or competing ligand from its target. As a reminder, the IC50 is the concentration needed to halve the response being measured.
